{
  "source": "patent US12496218B1",
  "about": "“Fractionated topical ocular drug delivery methods and devices for use in the same” (Bausch + Lomb Ireland Limited, priority 2019, dated 2025)",
  "key": {"humans [1]": {"tested_on": "humans", "assay": "Distance corrected near visual acuity (DCNVA) in human subjects after topical ocular micro-dosing, conventional vs fractionated"}, "humans [2]": {"tested_on": "humans", "assay": "Intraocular pressure (IOP) in human subjects after topical ocular micro-dosing, conventional vs fractionated", "assay_type": "in vivo", "conditions": "FIG. 5"}},
  "data": [
    {"smiles": "CC[C@@H]1C(=O)OC[C@@H]1Cc1cncn1C", "note": "[pilocarpine]", "values": [
      {"measurement": "toxic effects", "setting": "humans [1]; 2% pilocarpine, double dosing (regimen D) vs single dose (regimen C)", "result": "absence of any evident toxic effects"},
      {"measurement": "change from baseline DCNVA (letter score)", "setting": "humans [1]; dose regimen B (fractionated 1% pilocarpine), both eyes, photopic conditions, FIG. 4, significant at 1 and 2 hours post-dosing", "result": "biggest gain from baseline at all time points"},
      {"measurement": "portion of subjects who gained more than 15 letters of distance corrected near vision compared with baseline", "setting": "humans [1]; dose regimen B: double (fractionated) micro-dose of 1% pilocarpine, 5 minute interval, mesopic and photopic illumination", "result": 66.7, "unit": "%"},
      {"measurement": "eyes that achieved 3 lines of distance corrected near vision improvement", "setting": "humans [1]; dose regimen C: single non fractionated dose of 2% pilocarpine", "result": 33.3, "unit": "%"},
      {"measurement": "eyes that achieved 3 lines of distance corrected near vision improvement", "setting": "humans [1]; dose regimen D: double dosing of 2% pilocarpine", "result": 0, "unit": "%"},
      {"measurement": "distance corrected near visual acuity, group B compared with group A", "setting": "humans [1]; double (fractionated) dose of 1% pilocarpine (B) vs single conventional dose of 1% pilocarpine (A)", "result": "statistically significant improvement"},
      {"measurement": "distance corrected near vision, regimen B compared with regimen C (same total drug amount)", "setting": "humans [1]; fractionated micro-dose of 1% pilocarpine (B) vs 1 dose of 2% pilocarpine (C), mesopic and photopic", "result": "performed significantly better"},
      {"measurement": "IOP (intraocular pressure) result, regimen B compared with regimen C", "setting": "humans [2]; dose regimen B: fractionated 1% pilocarpine", "result": "performed much better"},
      {"measurement": "IOP (intraocular pressure) result", "setting": "humans [2]; dose regimen C: single dose of 2% pilocarpine", "result": "null IOP result"}
    ]}
  ]
}
